Reference: patent US20030198661A1, “Antioxidant compositions and methods for companion animals” (MARS INCORPORATED, priority 2000, published 2003)

How the values were obtained:
[1] = tested on: rabies; format: in vivo; conditions: healthy adult cats; once daily oral supplement at Table 13 levels
[2] = dog, in vivo
[3] = Plasma α-tocopherol response to supplementation in healthy dogs (Example 10); format: in vivo
Description: Vitamin E is the collective name for 8 naturally occurring molecules, 4 tocopherols and 4 tocotrienols. The biological activity of the various forms roughly correlates with their antioxidant activities with the order of relative peroxyl scavenging reactivities of α>β>γ>δ-tocopherol. […] The minimum requirement for vitamin E in adult dogs has been established as 2.5 IU α-tocopherol/400 kcal diet (Nutrient Requirements of Dogs (1985) National Research Council (U.S.) National Academy Press Washington D.C. ISBN:0-309-03496-5). Prepared petfoods typically contain up to 10 times this amount but across the normal ranges of vitamin E in petfoods, plasma concentrations tend to be constant. In a study to evaluate the impact of supplementary vitamin E on the plasma response, 6 adult dogs, maintained on a nutritionally complete (see diet reference section) canned dog food (vitamin E content 8.2 mg/400 kcal (8.21U/400 kcal), were offered a supplement equivalent to 100 IU vitamin E/day for 6 weeks. A control group of 6 dogs was maintained under the same conditions but received no dietary supplement. Plasma α-tocopherol was monitored during, and for 4 weeks following, the supplementation period.

[4] = cats; oral α-tocopherol acetate supplements
[5] = in vivo
[6] = Plasma vitamin C in dogs after dietary vitamin C; format: in vivo
Protocol: Samples are prepared under subdued lighting at all times.
A preferred minimal dose of vitamin C to achieve an increase in plasma in cats is 20 mg/400 kcal. A preferred minimal dose of vitamin C tested to achieve an increase in plasma in dogs was 27 mg/400 kcal.

In the case of `CC(C)=CCC/C(C)=C/C=C/C(C)=C/C=C/C(C)=C/C=C/C=C(C)/C=C/C=C(C)/C=C/C=C(\C)CCC=C(C)C` [lycopene], the “anti-rabies antibody response to vaccination versus unsupplemented controls” value [1] is reported as “particularly marked”.
For `CC1=C(/C=C/C(C)=C/C=C/C(C)=C/C=C/C=C(C)/C=C/C=C(C)/C=C/C2=C(C)CCCC2(C)C)C(C)(C)CCC1` [beta-carotene], the “anti-rabies antibody response to vaccination versus unsupplemented controls” value [1] was “greater”.
In the case of `Cc1c(C)c2c(c(C)c1O)CC[C@@](C)(CCC[C@H](C)CCC[C@H](C)CCCC(C)C)O2` [α-tocopherol], the “individual plasma α-tocopherol levels, median” value [2] is reported as 21.1 mg/L, the “Plasma α-tocopherol” value ([3]; Test group (100 IU vitamin E/day for 6 weeks), Baseline) is reported as 15.9 and the “Plasma α-tocopherol” value ([3]; Test group (100 IU vitamin E/day), Day 28) is reported as 32.6. For the same compound, the “Plasma α-tocopherol” value ([3]; Test group (100 IU vitamin E/day), Day 42) was 35.4 and the “Plasma α-tocopherol” value ([3]; Test group, Day 70 (day 28 post-supplementation)) was 28.2 ± 6.87.
In the case of `NCCS(=O)(=O)O` [taurine, aminoethylsulfonic acid], the “anti-rabies antibody response to vaccination versus unsupplemented controls” value [1] is reported as “greater”.
For `CC(=O)Oc1c(C)c(C)c2c(c1C)CCC(C)(CCC[C@H](C)CCC[C@H](C)CCCC(C)C)O2` (stereo partly drawn) [Vitamin E, alpha-tocopherol acetate], the “plasma vitamin E levels following oral supplementation” value [4] was “significantly increased” and the “anti-rabies antibody response to vaccination versus unsupplemented controls” value [1] was “greater”.
With `O=C1O[C@H]([C@@H](O)CO)C(O)=C1O` [Vitamin C, L-ascorbic acid] the “plasma vitamin C levels versus baseline within 7 days” value [5] was “significantly increased”, the “anti-rabies antibody response to vaccination versus unsupplemented controls” value [1] was “greater” and the “minimal dose of vitamin C tested to achieve an increase in plasma” value [6] was 27 mg/400 kcal.
